This is an account of results in patent US20240269138A1, “MMP13 AS A THERAPEUTIC TARGET FOR ALLERGIC INFLAMMATORY DISEASES” (The General Hospital Corporation, priority 2021, published 2024).

SMILES strings stand for the structures.

For assay [1], the system named is OVA-induced allergic dermatitis. Put plainly: OVA-induced allergic dermatitis (mouse model of atopic dermatitis), topical inhibitor. It counts as in vivo, C57BL/6 mice. The settings on record: for inflammation in a mouse model of atopic dermatitis (overall): topical administration; for OVA-induced dermal thickening (edema formation) / OVA-induced epidermal thickening / OVA-induced T cell infiltration (CD3+ T cell density) / OVA-induced eosinophil infiltration (MBP+ eosinophil density): topical, 125 μl of 50 mM solution per cm^2 concurrently with OVA challenge, skin on day 21; for OVA-induced dermal thickening (edema formation) / OVA-induced epidermal thickening: H&E; for OVA-induced T cell infiltration (CD3+ T cell density) / OVA-induced eosinophil infiltration (MBP+ eosinophil density): immunostaining. As for the experimental part:
C57BL/6 mice were sensitized to OVA and challenged with control SAL or OVA as in FIGS. 1A-1G. Vehicle (water), the p38α inhibitor SCIO469 (p38αi), and the MMP13 inhibitor DB04760 (CAS 544678-85-5; MMP13i) were administered topically to the challenged skin site (125 μl of 50 mM solution per cm^2; n=10 per group) concurrently with SAL or OVA. SAL- and OVA-challenged skin was prepared for analysis as in FIGS. 1A-1G. (FIGS. 4A-4C) Skin sections were analyzed by H&E staining (FIG. 4A). Epidermal and dermal thickness (FIG. 4B and FIG. 4C, respectively) was determined from H&E-stained skin images and are shown as means±SEM. *, P<0.05; **, P<0.01 (two-tailed unpaired Student's t test). (FIGS. 4D-4G) Skin sections were analyzed by immunostaining/counterstaining for the indicated molecules (FIG. 4D and FIG. 4F). Solid and dotted line, epidermal margins and the epidermal-dermal boundary, respectively. CD3^+ T cell and MBP^+ eosinophil density (FIG. 4E and FIG. 4G, respectively) was determined on the basis of fluorescence signal-bearing cell numbers per image field and is shown as means SEM. **, P<0.01; ***, P<0.001 (two-tailed unpaired Student's t test). For allergen sensitization, OVA (Sigma) and alum adjuvant (Imject; Thermo Fisher Scientific) were combined in saline (0.9% sodium chloride; SAL) to constitute an inoculum (1 mg/ml and 100 mg/ml, respectively) and injected intraperitoneally into mice (200 μl per animal) on day 0 and 7. To elicit dermatitis in OVA-sensitized mice, shaved dorsal skin was subjected to 15 strokes of tape stripping (Tegaderm; 3M) and then challenged with OVA on days 14, 16 and 19. For this epicutaneous challenge, 100 μl of OVA (1 mg/ml in SAL) was applied to cotton gauze (1 cm×1 cm) placed on tape-stripped skin; 100 μl of SAL was applied as a control. For topical administration of p38α and MMP13 inhibitors, 125 μl of inhibitor solution (50 mM) was applied to skin sites concurrently with SAL or OVA. Challenged skin was sampled on day 21 for analysis. Mouse skin and lung tissues were fixed with formalin and embedded in paraffin. Tissue sections were analyzed by hematoxylin and eosin (H&E) and Periodic acid-Schiff (PAS) staining or by immunofluorescence analysis using primary antibodies in conjunction with Alexa Fluor 594- or fluorescein isothiocyanate-conjugated secondary antibodies (Thermo Fisher Scientific) and Hoechst 33342 (Sigma). Primary antibodies specific to the following antigens were used in immunofluorescence analysis after 1:100 to 1:200 dilution: CD3 (SP7; Abcam), MBP (2000-124; Mayo Clinic), and MMP13 (ab39012; Abcam). Cytospins of BAL cells were analyzed by Diff-Quik staining. Data values are expressed as means±SEM. P values were obtained with the unpaired two-tailed Student t test with Welch's correction.

Assay [2] relates to HDM-induced allergic airway inflammation. The assay can be described thus: HDM-induced allergic airway inflammation (mouse model of asthma), intraperitoneal inhibitor. Particulars: for total BAL leukocyte numbers / histologically detectable changes in the lung tissue sections: 50 mg/kg intraperitoneally on days 19 and 20; for total BAL leukocyte numbers: BAL on day 21, Diff-Quik; for histologically detectable changes in the lung tissue sections: lungs on day 21, H&E and PAS; for effectiveness compared with dexamethasone: inhibitor 50 mg/kg vs dexamethasone 1 mg/kg, intraperitoneally, days 19 and 20; for inflammation in a mouse model of asthma (overall): systemic (intraperitoneal) administration. It counts as in vivo, C57BL/6 mice. As for the experimental part: C57BL/6 mice were subjected to intranasal instillation of control PBS or HDM as in FIGS. 5A-5D. Vehicle (DMSO), dexamethasone (1 mg/kg), and the MMP13 inhibitors CL82198 (MMP13i Inh1; 50 mg/kg) and DB04760 (CAS 544678-85-5; MMP13i Inh2; 50 mg/kg) were administered intraperitoneally (n=3, 3, 4, and 2 per group, respectively) on days 19 and 20. BAL and lungs of PBS- and HDM-challenged mice were prepared for analysis as in FIGS. 5A-5D. (FIG. 6A and FIG. 6B) BAL cells were analyzed by Diff-Quik staining (FIG. 6A). The numbers of total BAL cells and the indicated types of BAL cells were determined from Diff-Quik-stained cell images and are shown as means±SEM (FIG. 6B). *, P<0.05 (two-tailed unpaired Student's t test). (FIG. 6C and FIG. 6D) Lung sections were analyzed by H&E staining (FIG. 6C) and PAS staining (FIG. 6D). Mice were subjected to intranasal instillation of HDM (D. farinae) extract (XPB81D3A25; Stallergenes Greer) in phosphate-buffered saline (PBS) on days 0, 2, 5, 7, 9, 12, 14, 16 and 19. The amounts of HDM extract administered range between 1 μg and 10 μg per animal; the administered amount for each batch was determined by seeking a condition for BAL eosinophils of 2-5×10^5 cells. PBS was instilled as a control. Dexamethasone and MMP13 inhibitors were injected intraperitoneally (1 mg/kg and 50 mg/kg, respectively) on days 19 and 20. BAL and lungs of PBS- and HDM-challenged mice were prepared on day 21 for analysis. Mouse skin and lung tissues were fixed with formalin and embedded in paraffin. Tissue sections were analyzed by hematoxylin and eosin (H&E) and Periodic acid-Schiff (PAS) staining or by immunofluorescence analysis using primary antibodies in conjunction with Alexa Fluor 594- or fluorescein isothiocyanate-conjugated secondary antibodies (Thermo Fisher Scientific) and Hoechst 33342 (Sigma). Primary antibodies specific to the following antigens were used in immunofluorescence analysis after 1:100 to 1:200 dilution: CD3 (SP7; Abcam), MBP (2000-124; Mayo Clinic), and MMP13 (ab39012; Abcam). Cytospins of BAL cells were analyzed by Diff-Quik staining. Data values are expressed as means±SEM. P values were obtained with the unpaired two-tailed Student t test with Welch's correction.

A further assay deals with MMP13 (Homo sapiens, UniProt P45452). Particulars: fill the S1′ pocket of MMP13 but cannot fit those of other MMPs; cited from earlier work.

As for `C[C@@H]1CN(Cc2ccc(F)cc2)[C@@H](C)CN1C(=O)c1cc2c(C(=O)C(=O)N(C)C)cn(C)c2cc1Cl` [SCIO469], in assay [1], the “inflammation in a mouse model of atopic dermatitis (overall)” value was “suppresses inflammation”, the “OVA-induced dermal thickening (edema formation)” value is recorded as “significant decrease”, the OVA-induced epidermal thickening entry is “significant decrease” and the “OVA-induced T cell infiltration (CD3+ T cell density)” value is “significant decrease”. For the same compound, in assay [1], the “OVA-induced eosinophil infiltration (MBP+ eosinophil density)” value is “significant decrease”.

Consider `O=C(NCCCCN1CCOCC1)c1cc2ccccc2o1` [CL82198], for which, in assay [2], the “total BAL leukocyte numbers” value is “substantially reduced”, the “histologically detectable changes in the lung tissue sections” value is listed as “prevented”, the “effectiveness compared with dexamethasone” value is on record as “superior to that of dexamethasone” and the “inflammation in a mouse model of asthma (overall)” value is “suppresses inflammation”. Also, the “selectivity for MMP13 over other MMPs” value at MMP13 is recorded as “almost exclusively selective for MMP13”.

For `Cc1cc(CNC(=O)c2cc(C(=O)NCc3ccc(F)c(C)c3)ncn2)ccc1F` [DB04760], in assay [1], the “inflammation in a mouse model of atopic dermatitis (overall)” value is listed as “suppresses inflammation”, the “OVA-induced dermal thickening (edema formation)” value is “trend of decrease”, the OVA-induced epidermal thickening result is “significantly reduced” and the “OVA-induced T cell infiltration (CD3+ T cell density)” value is “significantly reduced”. Also, the “OVA-induced eosinophil infiltration (MBP+ eosinophil density)” value in assay [1] is on record as “trend of decrease”. Further, in assay [2], the “total BAL leukocyte numbers” value is on record as “substantially reduced”, the “histologically detectable changes in the lung tissue sections” value was “prevented”, the “effectiveness compared with dexamethasone” value is listed as “superior to that of dexamethasone” and the “inflammation in a mouse model of asthma (overall)” value is “suppresses inflammation”.
